Measured values reported in PubChem BioAssay AID1963964 (Molecular Pharmacology Branch, DTP, NCI, 2024).
pIC50: −log10 of the molar value.

System: 997726-040-R-J2-PDC tumor spheroids, viability
Assay: Anticancer human tumor 997726-040-R-J2-PDC patient-derived squamous cell lung carcinoma cell line growth inhibition [PI3K]
Details: spheroids with HUVEC and MSC; for viability, T/C: stronger effect = lower value; for pIC50: curve of first compound
Summary of the method: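 Complex 3D spheroids (cancer cells + endothelial HUVEC + mesenchymal stem cells); drug pairs of targeted agent x inavolisib/alpelisib/duvelisib/copanlisib; half-log series from ~Cmax, max 10 microM if Cmax unknown; endpoint viability.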

[1] = second compound 0.0316 µM, first compound 0.0316 µM
[2] = second compound 0.0316 µM, first compound 0.1 µM
[3] = second compound 0.0316 µM, first compound 0.316 µM
[4] = second compound 0.0316 µM, first compound 1 µM
[5] = second compound 0.0316 µM, first compound 3.16 µM
[6] = second compound 0.0316 µM, first compound 10 µM
[7] = second compound 0.1 µM, first compound 0.0316 µM
[8] = second compound 0.1 µM, first compound 0.1 µM
[9] = second compound 0.1 µM, first compound 0.316 µM
[10] = second compound 0.1 µM, first compound 1 µM
[11] = second compound 0.1 µM, first compound 3.16 µM
[12] = second compound 0.1 µM, first compound 10 µM
[13] = second compound 0.316 µM, first compound 0.0316 µM
[14] = second compound 0.316 µM, first compound 0.1 µM
[15] = second compound 0.316 µM, first compound 0.316 µM
[16] = second compound 0.316 µM, first compound 1 µM
[17] = second compound 0.316 µM, first compound 3.16 µM
[18] = second compound 0.316 µM, first compound 10 µM
[19] = second compound 1 µM, first compound 0.0316 µM
[20] = second compound 1 µM, first compound 0.1 µM
[21] = second compound 1 µM, first compound 0.316 µM
[22] = second compound 1 µM, first compound 1 µM
[23] = second compound 1 µM, first compound 3.16 µM
[24] = second compound 1 µM, first compound 10 µM
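Also: spheroids exposed to compounds for seven days before readout.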

Compound: CC(C)n1nc(-c2ccc3oc(N)nc3c2)c2c(N)ncnc21
- viability, T/C (compound 0.000316 µM): 91.5% [middle of 4 runs]
- viability, T/C (compound 0.001 µM): 85% [middle of 4 runs]
- viability, T/C (compound 0.00316 µM): 87.5% [middle of 4 runs]
- viability, T/C (compound 0.01 µM): 68% [middle of 4 runs]
- viability, T/C (compound 0.0316 µM): 50.7% [middle of 4 runs]
- viability, T/C (compound 0.1 µM): 14.7% [middle of 4 runs]
- IC50 (curve of compound): 28.8 nM [middle of 4 runs]

Compound: CNC(=O)c1ccc(N2C(=S)N(c3ccc(C#N)c(C(F)(F)F)c3)C(=O)C2(C)C)cc1F + CC(Nc1ncnc2nc[nH]c12)c1cc2cccc(Cl)c2c(=O)n1-c1ccccc1
- pIC50 (second compound 0.0316 µM): < 5.00
- pIC50 (second compound 0.1 µM): < 5.00
- pIC50 (second compound 0.316 µM): < 5.00
- pIC50 (second compound 1 µM): < 5.00
- pIC50 (second compound 3.16 µM): < 5.00
- pIC50 (second compound 10 µM): < 5.00
- viability, T/C [1]: 88.7%
- viability, T/C [2]: 97.8%
- viability, T/C [3]: 115%
- viability, T/C [4]: 90.4%
- viability, T/C [5]: 102%
- viability, T/C [6]: 86.7%
- viability, T/C [7]: 98%
- viability, T/C [8]: 93.6%
- viability, T/C [9]: 97%
- viability, T/C [10]: 107%
- viability, T/C [11]: 104%
- viability, T/C [12]: 92.4%
- viability, T/C [13]: 104%
- viability, T/C [14]: 109%
- viability, T/C [15]: 101%
- viability, T/C [16]: 99.2%
- viability, T/C [17]: 104%
- viability, T/C [18]: 90.2%
- viability, T/C [19]: 96.7%
- viability, T/C [20]: 86.6%
- viability, T/C [21]: 78.7%
- viability, T/C [22]: 85%
- viability, T/C [23]: 89%
- viability, T/C [24]: 86.9%
- viability, T/C (second compound 3.16 µM, first compound 0.0316 µM): 71%
- viability, T/C (second compound 3.16 µM, first compound 0.1 µM): 73.8%
- viability, T/C (second compound 3.16 µM, first compound 0.316 µM): 72.6%
- viability, T/C (second compound 3.16 µM, first compound 1 µM): 80%
- viability, T/C (second compound 3.16 µM, first compound 3.16 µM): 80.3%
- viability, T/C (second compound 3.16 µM, first compound 10 µM): 66.2%
- viability, T/C (second compound 10 µM, first compound 0.0316 µM): 59.5%
- viability, T/C (second compound 10 µM, first compound 0.1 µM): 53.9%
- viability, T/C (second compound 10 µM, first compound 0.316 µM): 50.6%
- viability, T/C (second compound 10 µM, first compound 1 µM): 48%
- viability, T/C (second compound 10 µM, first compound 3.16 µM): 54.4%
- viability, T/C (second compound 10 µM, first compound 10 µM): 50%

Compound: C[C@@H](NC(=O)c1ncnc(N)c1Cl)c1ncc(C(=O)Nc2cc(C(F)(F)F)c(Cl)cn2)s1 + COc1c(OCCCN2CCOCC2)ccc2c3n(c(=NC(=O)c4cnc(N)nc4)nc12)CCN3
- pIC50 (second compound 0.00316 µM): < 5.00
- pIC50 (second compound 0.01 µM): < 5.00
- pIC50 (second compound 0.0316 µM): > 7.50
- pIC50 (second compound 0.1 µM): > 7.50
- pIC50 (second compound 0.316 µM): > 7.50
- pIC50 (second compound 1 µM): > 7.50
- viability, T/C (second compound 0.00316 µM, first compound 0.0316 µM): 79.8%
- viability, T/C (second compound 0.00316 µM, first compound 0.1 µM): 104%
- viability, T/C (second compound 0.00316 µM, first compound 0.316 µM): 93.6%
- viability, T/C (second compound 0.00316 µM, first compound 1 µM): 96.8%
- viability, T/C (second compound 0.00316 µM, first compound 3.16 µM): 86%
- viability, T/C (second compound 0.00316 µM, first compound 10 µM): 57.2%
- viability, T/C (second compound 0.01 µM, first compound 0.0316 µM): 64.1%
- viability, T/C (second compound 0.01 µM, first compound 0.1 µM): 71.6%
- viability, T/C (second compound 0.01 µM, first compound 0.316 µM): 66.7%
- viability, T/C (second compound 0.01 µM, first compound 1 µM): 68.9%
- viability, T/C (second compound 0.01 µM, first compound 3.16 µM): 58.2%
- viability, T/C (second compound 0.01 µM, first compound 10 µM): 54.8%
- viability, T/C [1]: 44%
- viability, T/C [2]: 42.9%
- viability, T/C [3]: 45.7%
- viability, T/C [4]: 47.9%
- viability, T/C [5]: 39.6%
- viability, T/C [6]: 34.1%
- viability, T/C [7]: 26.7%
- viability, T/C [8]: 25.6%
- viability, T/C [9]: 27.1%
- viability, T/C [10]: 29.2%
- viability, T/C [11]: 25.6%
- viability, T/C [12]: 19.2%
- viability, T/C [13]: 6.28%
- viability, T/C [14]: 6%
- viability, T/C [15]: 7.45%
- viability, T/C [16]: 7.98%
- viability, T/C [17]: 5.89%
- viability, T/C [18]: 3.91%
- viability, T/C [19]: 2.28%
- viability, T/C [20]: 1.55%
- viability, T/C [21]: 1.77%
- viability, T/C [22]: 1.89%
- viability, T/C [23]: 1.41%
- viability, T/C [24]: 0.66%
